# Results as given in patent US12171229B2, “Heteroaryl-triazole and heteroaryl-tetrazole compounds as pesticides” (BAYER AKTIENGESELLSCHAFT, priority 2018, dated 2024).
# Tests used:
# Type in all cases: in vivo
# [1] = test system: Aedes aegypti strain MONHEIM; experiment: Aedes aegypti test (AEDSAE surface treatment & contact assay); conditions: 24 hours after contact, read-out: efficacy (mortality); for mortality at 4 mg/m2: surface concentration 4 mg/m^2, exposure 30 minutes; for mortality at 20 mg/m2: surface concentration 20 mg/m^2, exposure 30 minutes
# Method in brief: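 Compound dissolved in acetone (2 mg/ml) with 2000 ppm rapeseed oil methyl ester, applied to glazed tile and dried; adult strain MONHEIM mosquitoes exposed 30 minutes. Percent mortality scored 24 hours after contact.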
# Ctenocephalides felis [2] = experiment: Ctenocephalides felis oral test; conditions: 48 h, 100 ppm in cattle blood, after 2 days, adult unfed cat fleas
# Method in brief: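 Compound dissolved in DMSO and diluted in cattle blood to test concentration, offered to ~20 unfed adult fleas via a parafilm-sealed blood chamber held at 37° C (fleas at room temperature). Kill recorded at 2 days as % mortality.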
# Ctenocephalides felis [3] = experiment: Ctenocephalides felis in-vitro contact test, adult cat flea; conditions: 5 μg/cm^2 (=500 g/ha), after 48 hours, adult cat fleas, read-out: efficacy (fleas dead or moribund)
# Method in brief: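 Compound in acetone coated onto inner walls of glass tubes, e.g. 900 ppm giving 5 μg/cm². After drying, 5–10 adult C. felis added per tube and held at room temperature. At 48 h, fleas unable to escape a 45–50 °C heating plate within 5 min scored dead/moribund, giving % efficacy.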
# Boophilus microplus = Boophilus microplus injection test; conditions: Rhipicephalus microplus, 168 h; 20 μg/animal injected into the abdomen; adult engorged female ticks; egg deposition after 7 days; read-out: efficacy (infertile eggs)
# Method in brief: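 Efficacy, from 0% (all eggs fertile) to 100% (all infertile), was scored on eggs laid by five engorged adult females. Each female was injected intra-abdominally with 1 μl of compound solution in DMSO. Fertile egg laying was checked at 7 days, with uncertain eggs kept until hatching at about 42 days.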
# [4] = test system: Culex quinquefasciatus strain P00; experiment: Culex quinquefasciatus test (CULXFA surface treatment & contact assay); conditions: 24 hours after contact, read-out: efficacy (mortality); for mortality at 4 mg/m2: surface concentration 4 mg/m^2, exposure 30 minutes; for mortality at 20 mg/m2: surface concentration 20 mg/m^2, exposure 30 minutes
# Method in brief: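 Compound dissolved in acetone (2 mg/ml) with 2000 ppm rapeseed oil methyl ester, applied to glazed tile and dried; adult C. quinquefasciatus strain P00 exposed to surface for 30 minutes. Mortality (%) scored 24 hours after contact.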
# Myzus persicae = Myzus persicae oral test; conditions: 120 h, after 5 days
# Method in brief: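 Aphid mortality (%) was recorded 5 days after a mixed Myzus persicae population began sucking, through parafilm, on compound solutions (acetone stock diluted with water) combined with sugar-supplemented IPL41 medium.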
# Nezara viridula = Nezara viridula spray test; conditions: 96 h, after 4 days, larvae on barley plants
# Method in brief: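 Mortality (%) was assessed at day 4, from 0% (no bugs dead) to 100% (all dead). The spray solution was compound diluted to test concentration in water with 1000 ppm emulsifier and applied to barley carrying southern green stink bug larvae.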
# [5] = test system: Musca domestica strain WHO-N; experiment: Musca domestica test (MUSCDO surface treatment & contact assay); conditions: 24 hours after contact, read-out: efficacy (mortality); for mortality at 4 mg/m2: surface concentration 4 mg/m^2, exposure 30 minutes; for mortality at 20 mg/m2: surface concentration 20 mg/m^2, exposure 30 minutes
# Method: Musca domestica test (MUSCDO surface treatment & contact assay)
# Solvent: Aceton+2000 ppm rapeseed oil methyl ester (RME)
# In order to produce a sufficient, active ingredient containing solution it is necessary to solve the test compound in the solvent-mix (acetone at 2 mg/ml/RME 2000 ppm). This solution is pipetted onto a glazed tile and after evaporation of the acetone, adult flies of the species Musca domestica strain WHO-N are placed onto the dried surface. The exposure time is 30 minutes.
# Mortality in percent (%) is determined 24 hours after contact of the insects to the treated surface. 100% morality means that all tested insects are dead, whereas 0% means that no insect died.
# [6] = test system: Anopheles funestus strain FUMOZ-R; experiment: Anopheles funestus test (ANPHFU surface treatment & contact assay); conditions: 24 hours after contact, read-out: efficacy (mortality); for mortality at 4 mg/m2: surface concentration 4 mg/m^2, exposure 30 minutes; for mortality at 20 mg/m2: surface concentration 20 mg/m^2, exposure 30 minutes
# Method in brief: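 Compound dissolved in acetone (2 mg/ml) with 2000 ppm rapeseed oil methyl ester and applied to a glazed tile. After acetone evaporation, adult FUMOZ-R mosquitoes were exposed to the dried surface for 30 min. Percent mortality was scored 24 h after contact.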
SMILES,mortality at 4 mg/m2 [1],mortality at 20 mg/m2 [1],mortality at 100 ppm (Ctenocephalides felis [2]),pest or weed control at 5 µg/cm2 (Ctenocephalides felis [3]),pest or weed control at 0.02 mg (Boophilus microplus),mortality at 4 mg/m2 [4],mortality at 4 ppm (Myzus persicae),mortality at 500 g/ha (Nezara viridula),mortality at 4 mg/m2 [5],mortality at 20 mg/m2 [5],mortality at 4 mg/m2 [6],mortality at 20 mg/m2 [6],mortality at 20 mg/m2 [4],mortality at 100 g/ha (Nezara viridula),mortality at 20 ppm (Myzus persicae; 20 ppm)
C[C@H](NC(=O)c1cc(Cl)cc(C(F)(F)F)c1)c1ncnn1-c1ccc(C#N)cn1 [Example I-009],90 to 100%,90 to 100%,100%,100%,100%,90 to 100%,100%,100%,90 to 100%,90 to 100%,,,,,
C[C@H](NC(=O)c1cc(Cl)cc(C(F)(F)F)c1)c1ncnn1-c1ccc([N+](=O)[O-])cn1 [Example I-028],90 to 100%,90 to 100%,100%,,100%,90 to 100%,100%,100%,90 to 100%,90 to 100%,85 to 100%,90 to 100%,90 to 100%,100%,
Cc1nc([C@H](C)NC(=O)c2cc(C(F)(F)F)cc(C(F)(F)F)c2)n(-c2ccc(C#N)cn2)n1 [Example I-056],90 to 100%,90 to 100%,100%,100%,100%,90 to 100%,100%,100%,90 to 100%,90 to 100%,,,90 to 100%,100%,
C[C@H](NC(=O)c1cc(Cl)cc(Br)c1)c1ncnn1-c1ccc(C#N)cn1 [Example I-046],90 to 100%,90 to 100%,100%,100%,100%,90 to 100%,100%,,90 to 100%,90 to 100%,85 to 100%,90 to 100%,90 to 100%,,
"C[C@H](NC(=O)c1cc(Cl)cc(OC(F)(F)F)c1)c1ncnn1-c1ccc(C#N)cn1 [Example I-041, 3-chloro-N-{(1S)-1-[1-(5-cyanopyridin-2-yl)-1H-1,2,4-triazol-5-yl]ethyl}-5-(trifluoromethoxy)benzamide]",90 to 100%,90 to 100%,100%,100%,100%,90 to 100%,100%,100%,90 to 100%,90 to 100%,85 to 100%,90 to 100%,90 to 100%,100%,
C[C@H](NC(=O)c1cc(Cl)cc(C(F)(F)F)c1)c1ncnn1-c1ncc(Cl)cc1F [Example I-013],90 to 100%,90 to 100%,100%,,100%,90 to 100%,,100%,,90 to 100%,85 to 100%,90 to 100%,90 to 100%,,
C[C@H](NC(=O)c1cc(Cl)cc(SC(F)(F)F)c1)c1ncnn1-c1ccc(C#N)cn1 [Example I-042],90 to 100%,90 to 100%,100%,90%,100%,90 to 100%,100%,100%,90 to 100%,90 to 100%,85 to 100%,90 to 100%,90 to 100%,100%,
C[C@H](NC(=O)c1cc(C(F)(F)F)cc(C(F)(F)F)c1)c1ncnn1-c1ccc(C#N)cn1 [Example I-052],90 to 100%,90 to 100%,100%,90%,100%,90 to 100%,100%,100%,90 to 100%,90 to 100%,85 to 100%,,90 to 100%,100%,
C[C@H](NC(=O)c1cc(Cl)cc(Cl)c1)c1ncnn1-c1ccc(C#N)cn1 [Example I-047],90 to 100%,90 to 100%,100%,100%,100%,90 to 100%,,100%,90 to 100%,90 to 100%,85 to 100%,90 to 100%,90 to 100%,,
Cc1nc([C@H](C)NC(=O)c2cc(Cl)cc(C(F)(F)F)c2)n(-c2ccc(C#N)cn2)n1 [Example I-049],90 to 100%,90 to 100%,100%,100%,100%,90 to 100%,100%,100%,90 to 100%,90 to 100%,,90 to 100%,90 to 100%,100%,
C[C@H](NC(=O)c1cc(F)cc(C#N)c1)c1ncnn1-c1ccc(C#N)cn1 [Example I-018],90 to 100%,90 to 100%,100%,100%,100%,90 to 100%,90%,100%,90 to 100%,90 to 100%,85 to 100%,90 to 100%,90 to 100%,100%,
C[C@H](NC(=O)c1cc(Cl)cc(C(F)(F)F)c1)c1ncnn1-c1cc(C#N)ccn1 [Example I-015],90 to 100%,90 to 100%,100%,100%,100%,90 to 100%,100%,100%,,90 to 100%,,90 to 100%,90 to 100%,,
CC(c1ncnn1-c1ccc(C#N)cn1)N(CC1CC1)C(=O)c1cc(Cl)cc(C(F)(F)F)c1 (centres unmarked) [Example I-007],90 to 100%,90 to 100%,100%,100%,100%,90 to 100%,90%,100%,90 to 100%,90 to 100%,,,90 to 100%,100%,100%
C[C@H](NC(=O)c1cc(F)cc(C(F)(F)F)c1)c1ncnn1-c1ccc(C#N)cn1 [Example I-019],90 to 100%,90 to 100%,100%,100%,100%,90 to 100%,,90%,90 to 100%,90 to 100%,85 to 100%,90 to 100%,90 to 100%,,
